Test results published in patent US20260226034A1 (The Rockefeller University, priority 2023, published 2026).

These compounds were tested against NSP14 (Severe acute respiratory syndrome coronavirus 2, UniProt P0DTD1) (assay: NSP14 MTase inhibition assay at 37° C. (MTase-Glo SAH detection)). Details: 0.3 nM NSP14, 2.5 μM SAM, 2.5 μM GpppA RNA, 45 min at 37° C.; read-out: Nsp14 Mtase Inh. IC50.
Type: biochemical, SARS-CoV-2

Structure (SMILES)	IC50
COc1cnc(N2CC[C@@H](NC(=O)c3cc(S(=O)(=O)c4ccc5[nH]ncc5c4)c(C)n3C)C2)cn1 [A.113]	< 0.15 nM
Cc1c(S(=O)(=NCC2CC2)c2ccc3[nH]ncc3c2)cc(C(=O)N[C@@H]2CCN(c3ncc(F)cn3)C2)n1C (stereo partly shown) [A.69]	8.7 nM
Cc1c(S(=O)(=O)c2cc(Cl)c3[nH]ncc3c2)cc(C(=O)N[C@@H]2CCN(c3ncc(F)cn3)C2)n1C [A.41]	< 0.15 nM
Cc1c(S(=O)(=O)c2ccc(C#N)cc2)cc(C(=O)NCc2cccc3cnn(C)c23)n1C [A.24]	89 nM
Cc1c(S(=O)(=O)c2ccc3[nH]ncc3c2)cc(C(=O)N[C@@H]2CCN(c3ncc(C#N)cn3)C2)n1C [A.49]	0.63 nM
Cc1c(S(=O)(=O)c2ccc3[nH]ncc3c2)cc(C(=O)N[C@@H]2CCN(c3ccc(F)nc3)C2)n1C [A.56]	0.2 nM
COCCn1c(C(=O)N[C@@H]2CCN(c3ncc(F)cn3)C2)cc(S(=O)(=O)c2ccc3[nH]ncc3c2)c1C [A.91]	0.17 nM
Cc1c(S(=O)(=O)c2ccc3[nH]ncc3c2)cc(C(=O)N[C@@H]2CCN(c3cccc(C(F)(F)F)n3)C2)n1C [A.38]	0.8 nM
Cc1c(S(=O)(=O)c2ccc3[nH]ncc3c2)cc(C(=O)N[C@@H]2CCN(c3cnccn3)C2)n1C [A.71]	0.55 nM
Cc1c(S(=O)(=O)c2ccc3[nH]ncc3c2)cc(C(=O)N[C@@H]2CCN(c3ncc(F)cn3)C2)n1CCO [A.90]	< 0.15 nM
Cc1c(S(=O)(=O)c2ccc3[nH]ncc3c2)cc(C(=O)N[C@@H]2CCN(c3cc(C(F)(F)F)ccn3)C2)n1C [A.74]	0.57 nM
Cc1nc(N2CC[C@@H](NC(=O)c3cc(S(=O)(=O)c4ccc5[nH]ncc5c4)c(C)n3C)C2)nc(C)c1F [A.75]	0.51 nM
Cc1c(S(=O)(=O)c2ccccc2)cc(C(=O)NCc2cccc3cnn(C)c23)n1C [A.16]	15 nM
CN=S(=O)(c1ccc2[nH]ncc2c1)c1cc(C(=O)N[C@@H]2CCN(c3ncc(F)cn3)C2)n(C)c1C (stereo partly shown) [A.70]	3.9 nM
Cc1c(S(=O)(=O)c2ccc3[nH]ncc3c2)cc(C(=O)N[C@@H]2CCN(c3ccccc3OC(F)(F)F)C2)n1C [A.85]	27 nM
Cc1c(S(=O)(=O)c2ccc3[nH]ncc3c2)cc(C(=O)N[C@@H]2CCN(Cc3ccc(C#N)cc3)C2)n1C [A.101]	26 nM
Cc1c(S(=O)(=O)c2cc(C#N)c3[nH]ncc3c2)cc(C(=O)N[C@@H]2CCN(c3ncc(F)cn3)C2)n1C [A.63]	0.46 nM
Cc1c(S(=O)(=O)c2ccc3[nH]ncc3c2)cc(C(=O)N[C@@H]2CCN(c3cccc4ccnn34)C2)n1C [A.55]	0.9 nM
Cc1c(S(=O)(=O)c2ccc3[nH]ncc3c2)cc(C(=O)N[C@@H]2CCN(c3ncc(C(F)(F)F)cn3)C2)n1C [A.52]	0.3 nM
Cc1c(S(=O)(=O)c2ccccc2)cc(C(=O)NCc2c(F)ccc3cnn(C4CC4)c23)n1C [A.10]	4.9 nM
CC(=O)Nc1ccc(S(=O)(=O)c2cc(C(=O)NCc3c(F)ccc4occc34)n(C)c2C)cc1 [A.30]	243 nM
Cc1c(S(=O)(=O)c2ccc3[nH]ncc3c2)cc(C(=O)N[C@@H]2CCN(c3ncccc3F)C2)n1C [A.43]	0.42 nM
Cc1c(S(=O)(=O)c2ccc3[nH]ncc3c2)cc(C(=O)N[C@@H]2CCN(c3cccnn3)C2)n1C [A.99]	0.38 nM
Cc1c(S(=O)(=O)c2ccc3[nH]nc(F)c3c2)cc(C(=O)N[C@@H]2CCN(c3ncc(F)cn3)C2)n1C [A.39]	< 0.15 nM
Cc1c(S(=O)(=O)c2ccc3[nH]ncc3c2)cc(C(=O)N[C@@H]2CCN(Cc3ccc(C#N)cn3)C2)n1C [A.105]	14 nM
Cc1c(S(=O)(=O)c2ccc3[nH]ncc3c2)cc(C(=O)NCc2c(F)ccc3occc23)n1C [A.2]	0.32 nM
Cc1c(S(=O)(=O)c2cc(Cl)c3[nH]ncc3c2)cc(C(=O)N[C@@H]2CCN(c3ccnnc3)C2)n1C [A.119]	0.37 nM

Same assay, conditions: 37° C., 0.3 nM NSP14, 2.5 μM SAM, 2.5 μM GpppA RNA; read-out: Nsp14 Mtase Inh. IC50

Structure (SMILES)	IC50
Cc1c(S(=O)(=O)c2ccc3[nH]nc(F)c3c2)cc(C(=O)NCc2ccccc2N2CCC(F)(F)C2)n1C [B.39]	5.2 nM
Cc1c(S(=O)(=O)c2ccc3[nH]ncc3c2)cc(C(=O)NCc2c[nH]c3ncccc23)n1C [B.132]	0.6 nM
Cc1c(S(=O)(=O)c2ccc3[nH]ncc3c2)cc(C(=O)NCc2c(F)cccc2Cl)n1C [B.85]	0.2 nM
Cc1c(S(=O)(=O)c2ccc3[nH]nc(F)c3c2)cc(C(=O)NCc2cccc3cnn(C)c23)n1C [B.12]	0.63 nM
Cc1c(S(=O)(=O)c2ccc3[nH]ncc3c2)cc(C(=O)NCc2ccccc2S(C)(=O)=O)n1C [B.56]	2.9 nM
Cc1c(S(=O)(=O)c2ccc3[nH]ncc3c2)cc(C(=O)NC2CCc3cc(F)c(F)cc32)n1C (racemic) [B.92]	27 nM
Cc1c(S(=O)(=O)c2ccc3[nH]nc(F)c3c2)cc(C(=O)NC(c2ccccc2)C(F)(F)F)n1C (stereo not shown) [B.122]	70 nM
Cc1c(S(=O)(=O)c2cc(F)c3[nH]ncc3c2)cc(C(=O)NCc2c[nH]c(=O)c3ccccc23)n1C [B.109]	0.24 nM
Cc1c(S(=O)(=O)c2cnc3[nH]ncc3c2)cc(C(=O)NCc2cccc3cnn(C4CC4)c23)n1C [B.37]	10 nM
Cc1c(S(=O)(=O)c2ccc3[nH]ncc3c2)cc(C(=O)NC2Cc3ccccc32)n1C (stereo not shown) [B.120]	1.2 nM
Cc1c(S(=O)(=O)c2ccc3[nH]ncc3c2)cc(C(=O)NC2CCc3cc(C#N)ccc32)n1C (stereo not shown) [B.54]	2.3 nM
Cc1c(S(=O)(=O)c2ccc3[nH]ncc3c2)cc(C(=O)NCc2c(F)cc(CCN(C)C)cc2F)n1C [B.114]	184 nM
Cc1c(S(=O)(=O)c2ccc3[nH]ncc3n2)cc(C(=O)NCc2cccc3cnn(C4CC4)c23)n1C [B.50]	51 nM
Cc1c(S(=O)(=O)c2cc(F)c3[nH]ncc3c2)cc(C(=O)NCc2c(F)ccc3nnn(C4CC4)c23)n1C [B.94]	< 0.15 nM
Cc1c(S(=O)(=O)c2ccc3[nH]ncc3c2)cc(C(=O)NCc2c(Cl)cnn2C)n1CC(F)(F)F [B.185]	3.9 nM
Cc1c(S(=O)(=O)c2ccc3c(=O)[nH]ccc3c2)cc(C(=O)NCc2c(F)ccc3cnn(C4CC4)c23)n1C [B.136]	< 0.15 nM
Cc1c(S(=O)(=O)c2ccc3[nH]ncc3c2)cc(C(=O)NCc2c(Cl)cnn2C)n1C1CC1 [B.188]	1.6 nM
Cc1c(S(=O)(=O)c2ccc3[nH]nc(F)c3c2)cc(C(=O)NCc2c(F)ccc3nnn(C4CC4)c23)n1C [B.82]	< 0.15 nM
Cc1c(S(=O)(=O)c2ccc3[nH]ncc3c2)cc(C(=O)NCc2c(Cl)ccn(C)c2=O)n1C [B.180]	< 0.15 nM
Cc1c(S(=O)(=O)c2ccc3[nH]ncc3c2)cc(C(=O)NCc2c(F)cccc2OCCN(C)C)n1C [B.78]	2 nM
Cc1c(S(=O)(=O)c2ccc3[nH]ncc3c2Cl)cc(C(=O)NCc2c(F)ccc3c2N(C)C(=O)C32CC2)n1C [B.143]	0.4 nM
Cc1c(S(=O)(=O)c2ccc3[nH]nc(F)c3c2)cc(C(=O)NC(c2ccccc2)c2ccccc2)n1C [B.126]	108 nM
Cc1c(S(=O)(=O)c2ccc3[nH]ncc3c2)cc(C(=O)NC2CCc3c(F)ccc(F)c32)n1C (racemic) [B.70]	0.95 nM

Structure (SMILES)	IC50
Cc1c(S(=O)(=O)c2cc(F)c3[nH]ncc3c2)cc(C(=O)NCc2c(F)ccc3ncn(C4CC4)c23)n1C [B.102]	< 0.15 nM
Cc1c(S(=O)(=O)c2ccc3[nH]ncc3c2)cc(C(=O)NCc2cnc3ccccn23)n1C [B.138]	6.3 nM
Cc1c(S(=O)(=O)c2ccc3[nH]ncc3c2)cc(C(=O)NCc2c(F)ccc(OCCCCC(=O)O)c2F)n1C [B.125]	< 0.15 nM
Cc1c(S(=O)(=O)c2ccc3[nH]ncc3c2)cc(C(=O)NCc2c(F)cc(F)cc2F)n1C [B.86]	0.41 nM
Cc1c(S(=O)(=O)c2cccc(C#N)c2)cc(C(=O)NCc2cccc3cnn(C4CC4)c23)n1C [B.14]	23.1 nM
Cc1c(S(=O)(=O)c2ccc3c(cnn3C)c2)cc(C(=O)NCc2c(F)ccnc2N2CCC(C(=O)O)C2)n1C (stereo not shown) [B.48]	0.15 nM
Cc1c(S(=O)(=O)c2ccc3[nH]ncc3c2)cc(C(=O)NCc2c(F)cncc2F)n1C [B.107]	0.12 nM
Cc1c(S(=O)(=O)c2ccc3[nH]ncc3c2)cc(C(=O)NCc2c(F)ccn(C)c2=O)n1C [B.181]	0.23 nM
Cc1c(S(=O)(=O)c2ccc3[nH]ncc3c2)cc(C(=O)NCC2(COc3ncc(F)cn3)CC2)n1C [B.197]	2.7 nM
Cc1cc(S(=O)(=O)c2cc(C(=O)NCc3c(F)ccc4ncn(C5CC5)c34)n(C)c2C)cc2cn[nH]c12 [B.27]	0.21 nM
Cc1c(S(=O)(=O)c2cc(Cl)c3[nH]ncc3c2)cc(C(=O)NS(=O)(=NCC(F)(F)F)c2ccccc2)n1C (stereo not shown) [B.195]	12 nM
Cc1c(S(=O)(=O)c2ccc3[nH]ncc3c2)cc(C(=O)NCc2cccc3c2N(C)C(=O)C3)n1C [B.13]	0.6 nM
Cc1c(S(=O)(=O)c2ccc3c(cnn3C)c2)cc(C(=O)NCc2c(F)ccnc2N2CCC(C(=O)NS(C)(=O)=O)C2)n1C (stereo not shown) [B.182]	< 0.15 nM
Cc1c(S(=O)(=O)c2cc(Cl)c3[nH]ncc3c2)cc(C(=O)NCc2c(F)ccc3nnn(C4CC4)c23)n1C [B.153]	< 0.15 nM
Cc1c(S(=O)(=O)c2ccc3[nH]ncc3c2)cc(C(=O)NCc2ncnc3ncn(C)c23)n1C [B.129]	< 0.15 nM
Cc1c(S(=O)(=O)c2ccc3[nH]ncc3c2)cc(C(=O)NCc2ccccc2)n1C [B.67]	2.6 nM
Cc1ncoc1CNC(=O)c1cc(S(=O)(=O)c2ccc3[nH]ncc3c2)c(C)n1C [B.150]	14 nM
Cc1c(S(=O)(=O)c2ccc3[nH]ncc3c2)cc(C(=O)NCc2cccc3c2ccc(=O)n3C)n1C [B.33]	0.35 nM
Cc1c(S(=O)(=O)c2ccc3[nH]ncc3c2)cc(C(=O)NCc2c[nH]c(=O)c3ccccc23)n1C [B.21]	0.54 nM
Cc1c(S(=O)(=O)c2ccc3[nH]ncc3c2)cc(C(=O)NCc2c(F)ccc3nnn(C)c23)n1C [B.43]	< 0.15 nM
Cc1c(S(=O)(=O)c2ccc3[nH]ncc3c2)cc(C(=O)NCc2ccnn2CC(F)F)n1C [B.162]	2.2 nM
Cc1c(S(=O)(=O)c2cc(Cl)c3[nH]ncc3c2)cc(C(=O)NCc2c(Cl)cnn2C)n1C [B.184]	< 0.15 nM
Cc1c(S(=O)(=O)c2ccc3[nH]ncc3c2)cc(C(=O)NCc2c[nH]c(=O)c3cnccc23)n1C [B.130]	< 0.15 nM
